Experimental data taken from patent US20080015260A1, “Pharmaceutical compositions having improved stability and methods for preparation and use” (Kiel Laboratories, Inc., priority 2006, published 2008).
Structures can show the parent of a compound that is named as a salt.

Assay: Conversion of API to insoluble tannate complex in reaction mixtures (centrifugation, % converted insoluble)
Assay type: physicochemical
Details: for conversion to the tannate complex at reduced Neusilin® levels: ½ (4.4 wt%) and ¼ (2.2 wt%) Neusilin®
Method: The following example is a series of reaction mixtures for suspension formulations containing phenylephrine HCl, tannic acid and MAS or various concentrations of Neusilin®:
Analysis of the above suspensions was carried out by removing 10 gms of product and centrifuging. The amount of API found in the insoluble portion of the suspension was reported as the % converted insoluble and the liquid portion as the % converted soluble.
Analysis of the above suspension was carried out by removing 10 gms of product and centrifuging. The amount of API found in the insoluble portion of the suspension was reported as the % converted insoluble and the liquid portion as the % converted soluble.

CCN(CC)CCOCCOC(=O)C1(c2ccccc2)CCCC1 [carbetapentane, Carbetapentane Citrate]
effect of Neusilin® on level of conversion to the tannate complex compared to MAS (Neusilin® versus MAS, FIG. 2, FIG. 3): does not significantly affect the level of conversion | conversion to the tannate complex at reduced Neusilin® levels: same level of conversion

CNC[C@H](O)c1cccc(O)c1 [phenylephrine, Phenylephrine HCl]
increase in conversion to the tannate complex with Neusilin® in the suspension (Neusilin® 8.7 wt% versus MAS 8.7 wt%, FIG. 1): > 30% | conversion to the tannate complex at reduced Neusilin® levels: same increase in conversion
